What is called EC50 is the midpoint of the concentration-response curve.

Bounds are passed on as bounds.

The results in this text go back to patent US11866450B2, “Modulators of Cystic Fibrosis Transmembrane Conductance regulator, pharmaceutical compositions, methods of treatment, and process for making the modulators” (priority 2018, dated 2024).

The target of the experiment is CFTR-mediated chloride transport (Homo sapiens, UniProt P13569). The class given is cell-based. As to conditions: enteroid cells incubated with test compound 18-24 hours, acute 10 μM forskolin and 300 nM Compound III; for Max. Activity: % of chloride transport with 3 μM Compound A, 3 μM Compound II and 300 nM acute Compound III triple combination control. In short, it runs like this: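 Membrane-potential fluorescence AUC over 15 min quantified CFTR chloride transport after acute forskolin (10 μM), IBMX (100 μM) and Compound III (300 nM) in chloride-free buffer. Human enteroid cells were pretreated with compound for 18–24 h; % Activity is relative to 3 μM Compound A + 3 μM Compound II + 300 nM Compound III.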
Chain of CFTR-mediated chloride transport (P13569 whole entry, looked up): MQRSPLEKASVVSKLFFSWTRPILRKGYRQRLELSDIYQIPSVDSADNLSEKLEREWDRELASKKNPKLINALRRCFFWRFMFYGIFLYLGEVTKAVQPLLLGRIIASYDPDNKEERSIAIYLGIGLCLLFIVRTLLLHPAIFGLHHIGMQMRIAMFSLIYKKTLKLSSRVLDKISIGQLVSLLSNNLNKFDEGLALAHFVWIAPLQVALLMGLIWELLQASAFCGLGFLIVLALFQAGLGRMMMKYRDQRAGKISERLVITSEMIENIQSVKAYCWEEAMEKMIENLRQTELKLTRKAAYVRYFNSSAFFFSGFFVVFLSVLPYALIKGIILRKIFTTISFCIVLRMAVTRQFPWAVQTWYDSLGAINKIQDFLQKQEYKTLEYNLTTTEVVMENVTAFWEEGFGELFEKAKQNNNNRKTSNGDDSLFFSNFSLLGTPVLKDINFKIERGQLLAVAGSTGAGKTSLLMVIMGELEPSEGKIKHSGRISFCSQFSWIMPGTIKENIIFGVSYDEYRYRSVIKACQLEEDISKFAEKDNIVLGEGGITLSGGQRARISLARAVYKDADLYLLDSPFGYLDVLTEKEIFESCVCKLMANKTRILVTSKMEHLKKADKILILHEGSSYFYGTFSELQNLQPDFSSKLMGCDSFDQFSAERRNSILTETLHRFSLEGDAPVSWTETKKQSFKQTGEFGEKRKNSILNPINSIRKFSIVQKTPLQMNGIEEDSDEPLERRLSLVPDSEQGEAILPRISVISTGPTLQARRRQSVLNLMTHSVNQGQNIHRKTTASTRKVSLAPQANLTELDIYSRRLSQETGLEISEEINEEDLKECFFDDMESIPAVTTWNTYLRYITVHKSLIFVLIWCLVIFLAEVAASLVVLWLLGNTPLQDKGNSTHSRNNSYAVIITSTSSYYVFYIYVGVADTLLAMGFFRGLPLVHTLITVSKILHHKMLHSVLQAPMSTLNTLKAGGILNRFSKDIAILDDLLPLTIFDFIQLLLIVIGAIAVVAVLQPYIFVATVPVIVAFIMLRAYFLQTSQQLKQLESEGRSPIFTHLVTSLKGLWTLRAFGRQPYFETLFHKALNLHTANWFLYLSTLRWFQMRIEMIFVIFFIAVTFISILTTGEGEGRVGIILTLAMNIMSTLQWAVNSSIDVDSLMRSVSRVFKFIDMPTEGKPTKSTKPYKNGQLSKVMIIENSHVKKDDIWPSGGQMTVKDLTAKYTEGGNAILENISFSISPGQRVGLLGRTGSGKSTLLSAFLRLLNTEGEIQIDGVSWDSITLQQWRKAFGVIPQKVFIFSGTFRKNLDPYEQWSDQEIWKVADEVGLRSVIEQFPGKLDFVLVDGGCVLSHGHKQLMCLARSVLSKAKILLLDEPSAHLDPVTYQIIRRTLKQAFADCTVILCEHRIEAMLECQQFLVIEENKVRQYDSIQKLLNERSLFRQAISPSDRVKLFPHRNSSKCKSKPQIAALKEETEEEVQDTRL

As to `CC1(C)C[C@H]2CCCCNc3cccc(n3)S(=O)(=O)NC(=O)c3ccc(-n4ccc(OCCC5(C(F)(F)F)CC5)n4)nc3N1C2` (single isomer, unassigned) [Compound 30, 12,12-dimethyl-8-(3-{2-[1-(trifluoromethyl)cyclopropyl]ethoxy}-1H-pyrazol-1-yl)-2λ^6-thia-3,9,11,19,24-pentaazatetracyclo[18.3.1.111,14.05,10]pentacosa-1(23),5,7,9,20(24),21-hexaene-2,2,4-trione], the EC50 was less than 1000 nM and the “Max. Activity” value is recorded as “+++ (+++ is >60%)”.
Taken in the same sequence, the figures for `CC1(C)C[C@H]2CCn3ccc(n3)S(=O)(=O)NC(=O)c3ccc(-n4ccc(OCCCC5(C(F)(F)F)CC5)n4)nc3N1C2` (single isomer, unassigned) [Compound 278, 19,19-dimethyl-4-(3-{3-[1-(trifluoromethyl)cyclopropyl]propoxy}-1H-pyrazol-1-yl)-10λ^6-thia-1,3,9,14,21-pentaazatetracyclo[15.2.1.111,14.02,7]henicosa-2,4,6,11(21),12-pentaene-8,10,10-trione] were more than 3000 nM and “+ (+ is <30%)”.
For `Cc1c2cnn1CCCC1CN(c3nc(-n4ccc(OCC(C)(C)C(F)(F)F)n4)ccc3C(=O)NS2(=O)=O)C(C)(C)C1` (single isomer, unassigned) [Compound 285, 20,20,22-trimethyl-4-[3-(3,3,3-trifluoro-2,2-dimethylpropoxy)-1H-pyrazol-1-yl]-10λ^6-thia-1,3,9,13,14-pentaazatetracyclo[16.2.1.111,14.02,7]docosa-2,4,6,11(22),12-pentaene-8,10,10-trione] the same measures were less than 1000 nM and “+ (+ is <30%)”.
For `Cc1cc2nn1CCC[C@H]1CN(c3nc(-n4ccc(OCCC5(C(F)(F)F)CC5)n4)ccc3C(=O)NS2(=O)=O)C(C)(C)C1` (single isomer, unassigned) [Compound 151, 13,20,20-trimethyl-4-(3-{2-[1-(trifluoromethyl)cyclopropyl]ethoxy}-1H-pyrazol-1-yl)-10λ^6-thia-1,3,9,14,22-pentaazatetracyclo[16.2.1.111,14.02,7]docosa-2,4,6,11(22),12-pentaene-8,10,10-trione] the same measures were less than 1000 nM and “+++ (+++ is >60%)”.
As to `CC(C)(C)CC[C@H]1CCN(c2ccc3c(n2)N2C[C@@H](CCCNc4cccc(n4)S(=O)(=O)NC3=O)CC2(C)C)C1=O` (single isomer, unassigned) [Compound 127], the EC50 was less than 1000 nM and the “Max. Activity” value is reported as “+++ (+++ is >60%)”.
Taken in the same sequence, the figures for `CC1(C)C[C@H]2CCCOc3ccc(cc3)S(=O)(=O)NC(=O)c3ccc(-n4ccc(OCCC5(C(F)(F)F)CC5)n4)nc3N1C2` (single isomer, unassigned) [Compound 100, 12,12-dimethyl-8-(3-{2-[1-(trifluoromethyl)cyclopropyl]ethoxy}-1H-pyrazol-1-yl)-18-oxa-2λ^6-thia-3,9,11-triazatetracyclo[17.2.2.111,14.05,10]tetracosa-1(21),5,7,9,19,22-hexaene-2,2,4-trione] were more than 3000 nM and “+ (+ is <30%)”.
For `CC1(C)C[C@@H]2CCCNc3nc(ccc3O)S(=O)(=O)NC(=O)c3ccc(-n4ccc(OCCC5C6(CC6)C56CC6)n4)nc3N1C2` [Compound 254, (14S)-8-[3-(2-{dispiro[2.0.2.1]heptan-7-yl}ethoxy)-1H-pyrazol-1-yl]-20-hydroxy-12,12-dimethyl-2λ^6-thia-3,9,11,18,23-pentaazatetracyclo[17.3.1.111,14.05,10]tetracosa-1(23),5,7,9,19,21-hexaene-2,2,4-trione] the same measures were less than 1000 nM and “++ (++ is 30-60%)”.
`CC1(C)C[C@H]2CCCn3ccc(n3)S(=O)(=O)NC(=O)c3ccc(-n4ccc(OCCC5C(C)(C)C5(C)C)n4)nc3N1C2` (single isomer, unassigned) [Compound 207, 20,20-dimethyl-4-{3-[2-(2,2,3,3-tetramethylcyclopropyl)ethoxy]-1H-pyrazol-1-yl}-10λ^6-thia-1,3,9,14,22-pentaazatetracyclo[16.2.1.111,14.02,7]docosa-2(7),3,5,11(22),12-pentaene-8,10,10-trione]: the EC50 was less than 1000 nM and the “Max. Activity” value is reported as “+++ (+++ is >60%)”.
For `CC1(C)C[C@@H]2CCCNc3cccc(n3)S(=O)(=O)NC(=O)c3ccc(N4CC[C@H](OCC56CC7CC(CC(C7)C5)C6)C4=O)nc3N1C2` (single isomer, unassigned) [Compound 244] the same measures were less than 1000 nM and “++ (++ is 30-60%)”.
For `CC1(C)C[C@H]2CCCn3ccc(n3)S(=O)(=O)NC(=O)c3ccc(-n4ccc(OCCC5(C(F)(F)F)CC5)n4)nc3N1C2` [Compound 84, (18R)-20,20-Dimethyl-4-(3-{2-[1-(trifluoromethyl)cyclopropyl]ethoxy}-1H-pyrazol-1-yl)-10λ^6-thia-1,3,9,14,22-pentaazatetracyclo[16.2.1.111,14.02,7]docosa-2,4,6,11(22),12-pentaene-8,10,10-trione] the same measures were more than 3000 nM and “+ (+ is <30%)”.
Regarding `C[C@@H]1CC[C@H]2CN(c3nc(N4CCN(CCC(C)(C)C)C4=O)ccc3C(=O)NS(=O)(=O)c3cccc(n3)N1)C(C)(C)C2` (single isomer, unassigned) [Compound 216, 8-[3-(3,3-dimethylbutyl)-2-oxoimidazolidin-1-yl]-12,12,17-trimethyl-2λ^6-thia-3,9,11,18,23-pentaazatetracyclo[17.3.1.111,14.05,10]tetracosa-1(22),5,7,9,19(23),20-hexaene-2,2,4-trione], the EC50 is less than 1000 nM and the “Max. Activity” value was “+++ (+++ is >60%)”.
For `[2H]c1ccc2nc1NCCC[C@@H]1CN(c3nc(-n4ccc(OC([2H])([2H])C([2H])([2H])C5C6(CC6)C56CC6)n4)ccc3C(=O)NS2(=O)=O)C(C)(C)C1` [Compound 301, (14S)-8-[3-(2-{dispiro[2.0.2.1]heptan-7-yl}-1,1,2,2-tetradeuterio-ethoxy)-1H-pyrazol-1-yl]-12,12-dimethyl(20-deuterio)-2λ^6-thia-3,9,11,18,23-pentaazatetracyclo[17.3.1.111,14.05,10]tetracosa-1(23),5,7,9,19,21-hexaene-2,2,4-trione] the same measures were less than 1000 nM and “+++ (+++ is >60%)”.
For `CC1(C)C[C@H]2CCCCc3ccc(cc3)S(=O)(=O)NC(=O)c3ccc(-n4ccc(OCCC5(C(F)(F)F)CC5)n4)nc3N1C2` (single isomer, unassigned) [Compound 54, 12,12-Dimethyl-8-(3-{2-[1-(trifluoromethyl)cyclopropyl]ethoxy}-1H-pyrazol-1-yl)-2λ^6-thia-3,9,11-triazatetracyclo[17.2.2.111,14.05,10]tetracosa-1(21),5,7,9,19,22-hexaene-2,2,4-trione] the same measures were 1000 to 3000 nM and “++ (++ is 30-60%)”.
In the case of `CN1CCC[C@H]2CN(c3nc(-n4ccc(OCCC5(C(F)(F)F)CC5)n4)ccc3C(=O)NS(=O)(=O)c3cccc1n3)C(C)(C)C2` (single isomer, unassigned) [Compound 138, 12,12,18-Trimethyl-8-(3-{2-[1-(trifluoromethyl)cyclopropyl]ethoxy}-1H-pyrazol-1-yl)-2λ^6-thia-3,9,11,18,23-pentaazatetracyclo[17.3.1.111,14.05,10]tetracosa-1(23),5(10),6,8,19,21-hexaene-2,2,4-trione], the EC50 is more than 3000 nM and the “Max. Activity” value is on record as “+ (+ is <30%)”.
Taken in the same sequence, the figures for `C[C@@H]1CC[C@H]2CN(c3nc(-n4ccc(OCCC5(C(F)(F)F)CC5)n4)ccc3C(=O)NS(=O)(=O)c3cccc(n3)N1)C(C)(C)C2` (single isomer, unassigned) [Compound 61, 12,12,17-trimethyl-8-(3-{2-[1-(trifluoromethyl)cyclopropyl]ethoxy}-1H-pyrazol-1-yl)-2λ^6-thia-3,9,11,18,23-pentaazatetracyclo[17.3.1.111,14.05,10]tetracosa-1(23),5(10),6,8,19,21-hexaene-2,2,4-trione] were less than 1000 nM and “+++ (+++ is >60%)”.
For `CC1(C)C[C@@H]2CCCNc3cccc(n3)S(=O)(=O)NC(=O)c3ccc(N4CC[C@H](OCCCC5(C(F)(F)F)CC5)C4=O)nc3N1C2` (single isomer, unassigned) [Compound 242] the same measures were less than 1000 nM and “++ (++ is 30-60%)”.
Taken in the same sequence, the figures for `CC1(C)C[C@@H]2CCCNc3cccc(n3)S(=O)(=O)NC(=O)c3ccc(N4CC[C@H](CCC5C6(CC6)C56CC6)C4=O)nc3N1C2` (single isomer, unassigned) [Compound 177] were less than 1000 nM and “++ (++ is 30-60%)”.
With `CC1(C)C[C@H]2CNc3cccc(n3)S(=O)(=O)NC(=O)c3ccc(-n4ccc(OCCC5(C(F)(F)F)CC5)n4)nc3N1C2` (single isomer, unassigned) [Compound 24, 6,6-dimethyl-10-(3-{2-[1-(trifluoromethyl)cyclopropyl]ethoxy}-1H-pyrazol-1-yl)-16λ^6-thia-2,7,9,15,21-pentaazatetracyclo[15.3.1.14,7.08,13]docosa-1(20),8,10,12,17(21),18-hexaene-14,16,16-trione], the EC50 is more than 3000 nM and the “Max. Activity” value is recorded as “+ (+ is <30%)”.
Consider `CC1(C)C[C@@H]2CCCNc3cccc(n3)S(=O)(=O)NC(=O)c3ccc(-n4ccc(OCC(=O)C5C6(CC6)C56CC6)n4)nc3N1C2` [Compound 258, (14S)-8-[3-(2-{Dispiro[2.0.2.1]heptan-7-yl}-2-oxoethoxy)-1H-pyrazol-1-yl]-12,12-dimethyl-2λ^6-thia-3,9,11,18,23-pentaazatetracyclo[17.3.1.111,14.05,10]tetracosa-1(22),5,7,9,19(23),20-hexaene-2,2,4-trione], for which the EC50 was less than 1000 nM and the “Max. Activity” value is “+++ (+++ is >60%)”.
